These results are taken from patent publication US20110269790A1, “NOVEL THIENOPYRIDINES AS PHARMACOLOGICALLY ACTIVE AGENTS” (priority 2009, published 2011).

Molecules are shown by their SMILES.

Series [1] in a line: Acute oral toxicity, main study in rats. The conditions noted are these: both sexes, Albino Wistar, rat, in vivo, single oral dose, read-out: Maximum tolerated dose. On the procedure: In the preliminary sighting study, the effect of various dosed administered to single animals of each sex was investigated in a sequential manner. The sighting study generally yields information on the dose-toxicity relationship including an estimate of the minimum lethal dose. In the main study, the test article is administered to groups of 5 males and 5 female animals at one of the fixed doses (5, 50, 500 and 2000 mg/Kg). The dose is derived from the sighting study. It is immediately below that which is expected to result in mortality. If evident toxicity is not seen at the chosen dose level, the substance should be retested at the next higher dose level. If at the initial dose level, animals die, or a severe toxicity reaction requires removal of animals from the study for animal welfare reasons, the substance is retested at the next lower dose level. Consideration of data from the both sighting study and the main study enabled a judgment to be made on determination of maximum tolerated dose.
At least 10 animals (5 males and 5 females) for each species were used for dose level in this study. Animals were fasted overnight and test articles were administered as 1% gum acacia suspension orally. The dose used in this study is selected from one of four levels 5 mg/kg, 50 mg/kg, 500 mg/kg and 2000 mg/kg i.e. the dose that produced evident toxicity but not mortality in sighting study. […] Different biochemical and hematology parameters observed on “0’ day and on termination day .During main study physical parameters like feed consumption and body weight increase were also recorded. 5 males and females were taken, and toxicity study conducted for the compounds. […] Hematology and biochemical parameters were well and within normal range when compared with 0 day in rats and mice. Based on above observations synthetic compounds were safe upto 2000 mg/kg.

Series [2] has as its system TNF-α. Description: TNF-α in rat paw tissue, FCA model (ELISA). It is filed as in vivo. The conditions noted are these: termination day. On the procedure:
Group I—Normal Control; Group II—Arthritic control; Group III—Arthritic rats administered with Synthetic compound BN-4; Group IV—arthritic rats administered with compound BN-14; Group V—arthritic rats administered with BN-16; Group VI—arthritic rats administered with standard drug indomethacin. Administration of test compounds and indomethacin started on the same day of adjuvant injection at the dose of 100 and 2.5 mg/kg respectively. The test and indomethacin doses continued up to 21 days in FCA induced model and 24 days in collagen induced model. During the study period the paw volumes were measured on 5th, 12th, 18th and 21 st days and the weight of the animals was also recorded at different time intervals. At each time point the percentage of inhibition of paw volume was calculated with reference to mean paw volume of control group In FCA model, animals were sacrificed on 21st day by cervical dislocation. Before sacrificing the animals, blood was collected and used for estimation of total leukocyte count, TNF-α and IL-1β.
In FCA induced study paw tissues were collected on termination day and estimated TNF-α and IL-1β levels for all the groups by ELISA method.
Background: In an ELISA, binding on a coated surface is turned into a signal by an enzyme label.

Series [3] deals with TNF-α. The series is described as follows: TNF-α in paw tissue, collagen induced arthritis. The conditions noted are these: collagen induced study, day 24, 100 mg/kg/day. It counts as in vivo, rat. The text has this:
It is believed that these proinflammatory cytokines help to propagate a local or systemic inflammatory process, and to induce biosynthesis and secretion of metalloproteinases (MMPs) and osteoclasts that critically contribute to degradation of extracellular matrix and erosion of bone respectively (Burger et al., 1998; Gravallese and Goldring, 2000; Smolen and Steiner, 2003).

The test system of series [4] is TNF-α. The series is described as follows: In vitro TNF-α estimation in LPS treated RAW 264.7 macrophages (ELISA). It is filed as cell-based, mouse. The protocol: Cell Culture and Treatment: The RAW 264.7 (mouse macrophages, national center for cellular sciences) cells were grown in plastic T-25 culture flask in Dulbeccos modified eagles medium (DMEM) without phenol red supplemented with 10% heat activated serum (heating at 57° C. for 30 minutes, 100 μg per ml penicillin, 200 μg per ml streptomycin, 2 mmol L-glutamine, 1% antibiotic/Anti mycotic solution (GIBCO/SRL) under 5% co2 with 85% relative humidity at 37° C. After 2-3 days cells were removed from the culture flask by tripsinizing the cells with Trypsin EDTA solution. Cell count and viability was performed using a standard Trypan blue dye exclusion method. The cell concentration was adjusted to 1×10^5 cells per ml in each well with the same media in the 12 well plates. After 24 hrs incubation the media was removed from each well replaced with a fresh one containing different concentrations (50 μg, 25 μg, 12.5 μg) of the synthetic compounds BN-4, BN-14 and BN-16 along with 10 μg/ml LPS, where as normal control (PBS) and positive controls (Dexa, Roli) LPS (10 μg/ml), were added. 200 μl of media from each well was collected at 6 hrs for the estimation of TNF-α and after 24 hrs for Nitric Oxide respectively. The adherent cells, which remained after removing the media was subjected to […] for determining the cytotoxicity of compounds at selected concentrations
Measurement of TNF-α: TNF-α was assayed by ELISA kit supplied by R&D systems. A volume of 100 μl of 0.8 μg per ml, goat anti mouse TNF-a in PBS was coated and incubated overnight at room temperature. Plates were washed 3 times with PBS/0.05% Tween 20 and blocked by the addition of 1% BSA in PBS at room temperature for 2 hrs. Plates were washed 3 times again with same buffer and 100 μl of samples and standards (Recombinant mouse TNF-α with 1% BSA in PBS) of different concentrations were added in triplicates and incubated for 2 hrs at RT. After washing 100 μl of goat anti mouse TNF-α conjugated with HRP were added and incubated for 2 hrs at RT. Then 100 μl of TMB substrate ([…] with H2O2) was added to all wells. After 20 min stop solution was added to all the wells, and measured the optical density at 450 nm. TNF-α concentration was calculated from standard curve by regression analysis.

Setting [5] is: 50 μg/ml, 25 μg/ml, 12.5 μg/ml with LPS 10 μg/ml, 6 hrs.

For `Cc1sc2nc3c(c(N)c2c1C)CCCCC3` [BN-4, 2,3-dimethyl-6,7,8,9-tetrahydro-5H-cyclohepta[b]thieno[3,2-e]pyridin-4-amine], the MTD at 14 days in series [1] was more than 2000 mg/kg. For the same compound, the “% Inhibition (TNF-α)” value in the series on TNF-α [2] worked out at 42.9 ± 3.78%. In the series on TNF-α [3], the “Inhibition of TNF-α in paw tissues” value is recorded as “more significant inhibition (p<0.01)”. Moreover, the “Inhibition of TNF-a production” value with TNF-α [4] (12.5 μg/ml with LPS) is given as “not shown inhibition”; in the series with TNF-α [4] (setting [5]), “good inhibition”.
On to `Nc1c2c(nc3sc4c(c13)CCC4)CCCC2` [BN-14, 2,3,6,7,8,9-Hexahydro-1H-cyclopenta[4,5]thieno[2,3-b]quinolin-10-amine], for which the MTD at 14 days in series [1] amounted to 1060 mg/kg. The “% Inhibition (TNF-α)” value in the series on TNF-α [2] is reported as 38.03 ± 9.73%. In addition, the “Inhibition of TNF-α in paw tissues” value in the series on TNF-α [3] is recorded as “more significant inhibition (p<0.01)”. The “Inhibition of TNF-a production” value in the series on TNF-α [4] (setting [5]) was “good inhibition”.
Turning to `Nc1c2c(nc3sc4c(c13)CCC4)CCCCC2` [BN-16, 1,2,3,6,7,8,9,10-Octahydrocyclohepta[b]cyclopenta[4,5]thieno[3,2-e]pyridine-11-amine], the MTD at 14 days in series [1] is more than 2000 mg/kg. In addition, in the series with TNF-α [2], the “% Inhibition (TNF-α)” value is recorded as 37.42 ± 5.57%. For the same compound, in the series with TNF-α [3], the “Inhibition of TNF-α in paw tissues” value is recorded as “moderate inhibition (p<0.05)”. Also, in the series on TNF-α [4] (setting [5]), the “Inhibition of TNF-a production” value is on record as “good inhibition”.
Take `COc1ccc2c(c1)c(CC(=O)O)c(C)n2C(=O)c1ccc(Cl)cc1` [Indomethacin, reference compound]: the “% Inhibition (TNF-α)” value in the series on TNF-α [2] was 29.06 ± 0.06%. Besides, in the series on TNF-α [3], the “Inhibition of TNF-α in paw tissues” value is given as “moderate inhibition (p<0.05)”.
